From patent publication US20070172957A1, “Methods of identifying anti-inflammatory macrolides” (TAISHO PHARMACEUTICAL CO., LTD., priority 2004, published 2007)

Tested on: genes predictive for the anti-inflammatory macrolide effect
Assay: Genes statistically predictive of Clari response: differentially expressed with Clari but not the inactive macrolides MAA or Josa (Appendix E)
Assay type: cell-based
Excerpt: In the case of the above-mentioned (i) related to arachidonic acid biosynthesis, specifically, methods of the embodiment involve assaying whether a test macrolide alters biosynthesis of arachidonic acid, alters the expression or activities of enzymes involved in the biosynthesis or activation of arachidonic acid (e.g., arachidonic acid CoA synthetase, delta-6 desaturase, fatty acid elongase, and delta-5 desaturase, AA-related genes in Tables 2 and 3), or alters the expression of genes identified as predictive for the anti-inflammatory macrolide effect (Appendix E). Assays in which arachidonic acid or gene expression or enzymatic activity is detected can be carried out after contacting a cell with a test macrolide. Any cell line that secretes prostaglandin or produces arachidonic acid can be used. Epithelial and macrophages lines (e.g., A549 or THP-1) are suitable for this purpose; other cell lines can be identified by carrying out assays such as those described in the specific Examples, below. Alternatively, screening assays can be carried out after adding a test macrolide to an in vitro cell system (e.g., a cellular extract or liver microsome preparation) or an in vitro enzyme assay system.

CO[C@@H]1[C@@H](O[C@@H]2O[C@H](C)[C@@H](O[C@H]3C[C@@](C)(O)[C@@H](OC(=O)CC(C)C)[C@H](C)O3)[C@H](N(C)C)[C@H]2O)[C@@H](CC=O)C[C@@H](C)[C@@H](O)/C=C/C=C/C[C@@H](C)OC(=O)C[C@H]1OC(C)=O [josamycin]
group mean, gene UNG (SpotID 48807, MAA and Josa vs. Clari): 1.03
group mean, gene TUBB (SpotID 48914, MAA and Josa vs. Clari): 0.96
group mean, gene ITGAE (SpotID 48921, MAA and Josa vs. Clari): 0.85
mean group, ITGAE (SpotID 48921, pooled group mean): 0.85
group mean, gene P4HA2 (SpotID 48971, MAA and Josa vs. Clari): 1.07
group mean, gene FADS1 (SpotID 48998, MAA and Josa vs. Clari): 1.02
group mean, gene PRSS25 (SpotID 49006, MAA and Josa vs. Clari): 1.02
mean group, PRSS25 (SpotID 49006, pooled group mean): 1.02
group mean, gene TM9SF2 (SpotID 49007, MAA and Josa vs. Clari): 1.08
mean group, TM9SF2 (SpotID 49007, pooled group mean): 1.08
group mean, gene BBC3 (SpotID 49013, MAA and Josa vs. Clari): 0.93
group mean, gene BNIP3L (SpotID 49028, MAA and Josa vs. Clari): 1.03
mean group, BNIP3L (SpotID 49028, pooled group mean): 1.03
group mean, gene GSK3B (SpotID 49032, MAA and Josa vs. Clari): 1.06
group mean, gene GLUD1 (SpotID 49047, MAA and Josa vs. Clari): 1.05
group mean, gene SERPINB1 (SpotID 49117, MAA and Josa vs. Clari): 1.01
mean group, SERPINB1 (SpotID 49117, pooled group mean): 1.01
group mean, gene PPIB (SpotID 49142, MAA and Josa vs. Clari): 1.03
group mean, gene PIK3R3 (SpotID 49144, MAA and Josa vs. Clari): 1.01
group mean, gene ARTS-1 (SpotID 49155, MAA and Josa vs. Clari): 1.11
mean group, ARTS-1 (SpotID 49155, pooled group mean): 1.11
group mean, gene LGALS3 (SpotID 49163, MAA and Josa vs. Clari): 1.06
group mean, gene RRS1 (SpotID 49169, MAA and Josa vs. Clari): 1.09
mean group, RRS1 (SpotID 49169, pooled group mean): 1.09
group mean, gene YAF2 (SpotID 49172, MAA and Josa vs. Clari): 1.01
group mean, gene NEDD8 (SpotID 49177, MAA and Josa vs. Clari): 0.97
group mean, gene SRRM1 (SpotID 49183, MAA and Josa vs. Clari): 0.96
group mean, gene FUCA1 (SpotID 49197, MAA and Josa vs. Clari): 0.98
group mean, gene APOE (SpotID 49233, MAA and Josa vs. Clari): 0.96
mean group, APOE (SpotID 49233, pooled group mean): 0.96
mean group, TNFRSF10B (SpotID 49272, pooled group mean): 0.97
group mean, gene PPIB (SpotID 49314, MAA and Josa vs. Clari): 1.04
mean group, PPIB (SpotID 49314, pooled group mean): 1.04
group mean, gene YWHAH (SpotID 49318, MAA and Josa vs. Clari): 1.08
mean group, YWHAH (SpotID 49318, pooled group mean): 1.08
group mean, gene HNRPA3 (SpotID 49347, MAA and Josa vs. Clari): 1.01
group mean, gene NCBP2 (SpotID 49352, MAA and Josa vs. Clari): 0.94
group mean, gene TEB4 (SpotID 49360, MAA and Josa vs. Clari): 1.10
mean group, TEB4 (SpotID 49360, pooled group mean): 1.10
group mean, gene ABCE1 (SpotID 49364, MAA and Josa vs. Clari): 1.06
group mean, gene EIF3S9 (SpotID 49373, MAA and Josa vs. Clari): 1.06
mean group, SpotID 49374 (SpotID 49374 (gene symbol not given), pooled group mean): 0.97
group mean, SpotID 49374 (gene symbol not given) (SpotID 49374, MAA and Josa vs. Clari): 0.97
group mean, gene SLC35A2 (SpotID 49380, MAA and Josa vs. Clari): 0.99
group mean, gene PPP3CB (SpotID 49391, MAA and Josa vs. Clari): 1.02
group mean, gene TRRAP (SpotID 49435, MAA and Josa vs. Clari): 1.07
mean group, TRRAP (SpotID 49435, pooled group mean): 1.07
group mean, gene SRC (SpotID 49446, MAA and Josa vs. Clari): 1.00
mean group, SRC (SpotID 49446, pooled group mean): 1.00
group mean, gene LOC55871 (SpotID 49481, MAA and Josa vs. Clari): 0.90
group mean, gene VTN (SpotID 49490, MAA and Josa vs. Clari): 1.12
mean group, VTN (SpotID 49490, pooled group mean): 1.12
group mean, gene MATN2 (SpotID 49511, MAA and Josa vs. Clari): 0.93
group mean, gene GC20 (SpotID 49512, MAA and Josa vs. Clari): 1.01
group mean, gene UBC (SpotID 49514, MAA and Josa vs. Clari): 0.97
mean group, UBC (SpotID 49514, pooled group mean): 0.97
group mean, gene AP1G2 (SpotID 49524, MAA and Josa vs. Clari): 0.74
mean group, AP1G2 (SpotID 49524, pooled group mean): 0.74
group mean, gene GNPI (SpotID 49546, MAA and Josa vs. Clari): 1.05
mean group, LOC54543 (SpotID 49577, pooled group mean): 0.88
group mean, gene PSMC4 (SpotID 49580, MAA and Josa vs. Clari): 1.12
mean group, CSTF3 (SpotID 49606, pooled group mean): 0.98
group mean, gene POU4F1 (SpotID 49608, MAA and Josa vs. Clari): 0.97
group mean, gene CLN2 (SpotID 49618, MAA and Josa vs. Clari): 1.03
mean group, CLN2 (SpotID 49618, pooled group mean): 1.03
group mean, gene FGF2 (SpotID 49649, MAA and Josa vs. Clari): 1.12
group mean, gene MAP3K10 (SpotID 49650, MAA and Josa vs. Clari): 0.93
mean group, BTN3A2 (SpotID 49673, pooled group mean): 0.92
mean group, SERPINF1 (SpotID 49679, pooled group mean): 0.98
group mean, gene GSK3B (SpotID 49688, MAA and Josa vs. Clari): 1.05
group mean, gene CAT (SpotID 49698, MAA and Josa vs. Clari): 0.92
group mean, gene PCYT2 (SpotID 49705, MAA and Josa vs. Clari): 0.92
group mean, gene HNRPD (SpotID 49715, MAA and Josa vs. Clari): 0.99
group mean, gene GSK3B (SpotID 49735, MAA and Josa vs. Clari): 1.02
group mean, gene CHAF1B (SpotID 49737, MAA and Josa vs. Clari): 0.99
mean group, CHAF1B (SpotID 49737, pooled group mean): 0.99
group mean, gene USF2 (SpotID 49744, MAA and Josa vs. Clari): 0.93
group mean, gene RPLP0 (SpotID 49747, MAA and Josa vs. Clari): 0.91
